For series [1], the system named is H9EOS cells. Put plainly: Chemical resetting of primed H9EOS cells to naive state; EGFP-positive cells quantified on Day 14 by flow cytometry. The format is cell-based, human. To be noted: for BMP activation judged from resetting efficiency standardized to Chemical only: 1, 5 or 10 μM added to VPA-containing cRM-1 on Days 3-5 (FIG. 10, 11); for resetting efficiency with respect to chemical: VPA-free cRM-1, miR-98-5p transfected Day 1 combined with BMP2 or BMP4 added Day 2 (FIG. 12). As to the method:
After collecting H9EOS and H9EOS (NK) cells and measuring the cell count in the same manner as for subculturing, they were diluted with AK02N medium containing Y-27632 (Nacalai Tesque, 08945-84) and iMatrix-511 silk (Nippi, 387-10131) (culture medium for primed pluripotent stem cells) and seeded on a multiwell plate (modified method of G. Guo, et. al., 144, 2748-2763 (2017)). The medium was exchanged with AK02N on Day 1, with culturing in cRM-1 (NDiff 227 (Takara, Y40002) containing 1 μM PD0325901, 10 ng/ml hLIF, 1 mM VPA) or VPA-free cRM-1 (culture medium for naive pluripotent stem cells) from Day 2 to Day 5, followed by culturing up to Day 14 in cRM-2 (NDiff 227 containing 1 μM PD0325901, 10 ng/ml hLIF, 2 μM Go6983, 2 μM XAV939). The resetting efficiency was quantified by counting the cell count using a flow cytometer, with the EGFP-expressing cells as naive cells.
The mimic used for each miRNA was mirVana miRNA Mimic (Thermo Fisher Scientific). A control, mirVana miRNA Mimic, Negative Control (Thermo Fisher Scientific, 4464058) was also used. Introduction was carried out on either Day 1, 2, 3 or 4, or a combination thereof, during the normal course of resetting, using Lipofectamine RNAiMAX Transfection Reagent (Thermo Fisher Scientific, 13778075) as the miRNA mimic. Culturing was then carried out according to common resetting protocol, and the EGFP-positive cells were quantified on Day 14 using a flow cytometer.
On Day 1 of the resetting protocol shown in FIG. 2, the 22 plasmids were used, either alone or as a mixture of the 22 plasmids minus one each, for transfection together with the transposase-expressing plasmid (pCAG-PBase), using Lipofectamine Stem Transfection Reagent (Thermo Fisher Scientific, STEM00003). Doxycycline was added at a final concentration of 250 ng/ml to cRM-1 on Days 2 to 5 to induce gene expression. Culturing was then carried out according to common resetting protocol, and the EGFP-positive cells were quantified on Day 14 using a flow cytometer.
[…] 2. Culturing was then carried out according to common resetting protocol, and the EGFP-positive cells were quantified on Day 14 using a flow cytometer.
To cRM-1 containing or not containing VPA there was added 10-100 ng/mL of rhBMP4 (Reprocell, 314-BP-010), on one or more of Days 1 to 5 of the resetting protocol of FIG. 2. Culturing was then carried out according to common resetting protocol, and the EGFP-positive cells were quantified on Day 14 using a flow cytometer.
On Day 1 of the resetting protocol of FIG. 2, one siRNA from among NR6A1, TRIM71, LRIG1, DNMT3B, IGF2BP1, CACHD1, PCDH8, L1TD1, SFRP1, VASH2, LIN28B, USP44, MAPK10, DICER1, DPH3, PRTG, MAPK6, HMGA2, LINC01356 (n491112) and LINC01356 (n549768) (all purchased from Horizon Discovery/Dharmacon) was introduced using Lipofectamine RNAiMAX Transfection Reagent (Thermo Fisher Scientific, 13778075). Culturing was then carried out according to common resetting protocol, and the EGFP-positive cells were quantified on Day 14 using a flow cytometer.
For orientation: Flow cytometry measures light scatter and fluorescence of single cells or particles in a stream.

The subject of series [2] is AdiPS iPS cells and H1, H9EOS and H9 ES cells. Put plainly: Resetting efficiency by SUSD2 staining and flow cytometry. The format is cell-based, human. To be noted: all cell lines; miR-98-5p mimic Day 1 or BMP4 Day 2; VPA-containing cRM-1; Day 14 (FIG. 16). As to the method:
AccuMax was added to the cells on Day 14 of the resetting protocol of FIG. 2, and the mixture was incubated at 37° C. for about 10 to 15 minutes, after which the cells were detached. They were then suspended in 1% BSA-PBS to prevent nonspecific antibody binding, and after 30 minutes of blocking on ice, SUSD2 antibody was mixed with the cell suspension to a final concentration of 1:500, reaction was conducted for 30 minutes on ice and the mixture was rinsed with PBS, after which measurement was performed with a flow cytometer.
FIG. 16 is a graph showing resetting efficiency in culturing with VPA-containing cRM-1, using AdiPS iPS cells and H1, H9EOS and H9 ES cells. With mimic_ctrl and mimic-98-5p, cells were transfected with control mimic or miR-98-5p mimic on Day 1, culturing was carried out in VPA-containing cRM-1 from Day 2 to Day 4, and culturing was in cRM-2 from Day 5 to Day 14. For BMP-4, the BMP4 was added to VPA-containing cRM-1 on Day 2 without transfection of cells with control mimic or miR-98-5p mimic, for culturing up to Day 4, and then culturing was in cRM-2 from Day 5 to Day 14. […]

Consider 4 molecules from US20250290034A1, “METHOD FOR PRODUCING NAÏVE PLURIPOTENT STEM CELLS” (KYOTO UNIVERSITY, priority 2022, published 2025).

For the molecule `Brc1ccc(CSc2nc3ccccc3o2)cc1` [SB-4], the “BMP activation judged from resetting efficiency standardized to Chemical only” value in series [1] (H9EOS) was “capable of activating BMP”.
Still for that read-out and setting: the same measure for `O=C(/C=C/c1ccc(O)cc1)c1ccc(O)cc1O` [isoliquiritigenin]: “capable of activating BMP”.
Regarding “BMP4: recombinant human bone morphogenetic protein BMP4 (Reprocell, 314-BP-010)”, the “resetting efficiency (GFP-positive cells)” value in series [1] (H9EOS transfected with miR-98-5p Day 1, BMP4 added earlier (Day 0/1) with Wnt inhibitor (IWP mix, 1 μM) simultaneously or before, VPA-containing cRM-1 (FIG. 17)) is recorded as “maintaining the resetting efficiency”. Further, in series [1] (H9EOS, BMP added to medium on Day 2, VPA-containing cRM-1 (FIG. 12)), the “resetting efficiency compared to chemical” value is recorded as “highly significant increase”. For the same molecule, the “resetting efficiency with respect to chemical” value in series [1] (H9EOS) was “increase”. The resetting efficiency result in series [1] (H9EOS, rhBMP4 added on Day 0 (FIG. 12, 13)) is “lower”. Besides, the “percentage of SUSD2-positive cells” value in series [2] is on record as “tended to increase”.
Take “miR-98-5p: let-7 family miRNA mimic (mirVana), sequence UGAGGUAGUAAGUUGUAUUGUU, SEQ ID 1 (listed as RNA, chemistry not given here; listed as Homo sapiens)”: in series [1] (H9EOS), the “resetting efficiency with respect to chemical” value was “increase”. The resetting efficiency result in series [1] (H9EOS, miR-98-5p transfected Day 1 in addition to BMP2 or BMP4 on Day 2, VPA-containing cRM-1 (FIG. 12)) is reported as “tended to further increase”. Also, in series [1] (H9EOS, miRNA mimic transfected on Day 1, cRM-1 containing VPA, Day 14 (FIG. 3, FIG. 4)), the “resetting efficiency (EGFP-positive cells)” value is “significantly high”. For the same molecule, in series [2], the “percentage of SUSD2-positive cells” value is listed as “tended to increase”.
